pEC50, pIC50: −log10 of the molar value. Read-outs that look alike come from different tables or passages of the source.
Columns and labels:
[1] = test system: HCV sub-genomic replicon in GS4.3 cells (HuH-7 hepatoma cells); experiment: Quantitation by ELISA of Neomycin phosphotransferase II (NPTII) in the HCV sub-genomic replicon, GS4.3; format: cell-based, hepatitis C virus; conditions: Hepatitis C virus, Huh-7; GS4.3 cells, 72 h incubation, NPTII ELISA; read-out: Replicon EC50
Outline: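 Replicon-bearing HuH-7 (GS4.3) cells were exposed to compounds for 72 h in G418-free medium, top final concentration 10 μM, 1% DMSO. Lysates went to an NPTII ELISA read at 450 nm. Signal was normalised to DMSO-treated wells and EC50 was derived by four-parameter curve fitting.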

[2] = target: T1, full-length NS3/NS4A-2 (HCV NS3 protease) (Hepatitis C virus genotype 1a, UniProt P27958); experiment: NS3-NS4 protease assay / NS3 inhibition assay (RETS1 substrate, fluorescence kinetic read); format: biochemical
T1 construct: Recombinant E. coli or Baculovirus full-length NS3 was diluted to 3.33 μM with assay buffer; made in house; host or cells: E. coli or baculovirus (BV) expression system
T1 sequence (P27958 1027-1657): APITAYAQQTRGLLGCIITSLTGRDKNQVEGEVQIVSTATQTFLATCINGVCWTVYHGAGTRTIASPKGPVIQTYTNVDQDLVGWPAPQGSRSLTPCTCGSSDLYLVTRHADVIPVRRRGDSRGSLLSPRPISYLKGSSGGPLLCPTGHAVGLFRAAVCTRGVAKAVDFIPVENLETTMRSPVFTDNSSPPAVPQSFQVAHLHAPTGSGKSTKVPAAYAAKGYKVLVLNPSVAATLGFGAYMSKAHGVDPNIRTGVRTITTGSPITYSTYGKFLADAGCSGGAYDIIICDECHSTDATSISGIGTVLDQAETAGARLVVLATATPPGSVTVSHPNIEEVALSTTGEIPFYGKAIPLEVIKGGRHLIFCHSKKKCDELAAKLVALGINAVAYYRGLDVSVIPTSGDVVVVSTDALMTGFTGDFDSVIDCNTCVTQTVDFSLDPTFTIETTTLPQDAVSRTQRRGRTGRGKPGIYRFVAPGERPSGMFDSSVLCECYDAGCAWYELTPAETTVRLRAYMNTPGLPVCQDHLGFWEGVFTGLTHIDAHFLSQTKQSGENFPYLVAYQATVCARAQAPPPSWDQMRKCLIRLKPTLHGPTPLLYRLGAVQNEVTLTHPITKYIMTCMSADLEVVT
Outline: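 Ki values come from IC50 fits corrected via Ki=IC50/(1+[S]/Km), with Km 2.03 μM for E. coli and 1.74 μM for baculovirus full-length NS3. Enzyme (2 or 3 nM NS3, respectively, complexed with NS4A-2) sat with compound, top concentration 50 microM, for 10 min at room temperature. Cleavage of RETS1 (8 μM working solution) was then followed by fluorescence (335/495 nm) over 30 min.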

[3] = recombinant E. coli or Baculovirus full-length NS3 with NS4A-2, read-out: NS3-NS4 IC50

Compound | pEC50 [1] | pIC50 [2, 3] | pIC50 [2]
O=C(N[C@H]1CCCCC/C=C\[C@@H]2C[C@@]2(C(=O)NS(=O)(=O)N2CCC2)NC(=O)[C@@H]2C[C@@H](OC(=O)N3CCc4ccccc4C3)CN2C1=O)OC1CCCC1 [Compound 233] | > 7.00 | > 7.00 | 
O=C1N[C@]2(C(=O)NS(=O)(=O)C3CC3)C[C@H]2/C=C\CCCCC[C@H](Nc2c(N3CCCCC3)c(=O)c2=O)C(=O)N2C[C@H](OC(=O)N3Cc4cccc(F)c4C3)C[C@@H]12 [Compound 198] | > 6.00 | > 7.00 | 
CC(C)(C)OC(=O)N[C@H]1CCCCC/C=C\[C@@H]2C[C@@]2(C(=O)NCC2(O)CC2)NC(=O)[C@@H]2C[C@@H](OC(=O)N3Cc4cccc(F)c4C3)CN2C1=O [Compound 619] | > 6.00 | > 7.00 | 
CC(C)(C)OC(=O)N[C@H]1CCCCC/C=C\[C@@H]2C[C@@]2(C(=O)NC(=O)C2CC2)NC(=O)[C@@H]2C[C@@H](OC(=O)N3Cc4ccccc4C3)CN2C1=O [Compound 701] | > 7.00 | > 7.00 | 
O=C(N[C@H]1CCCCC/C=C\[C@@H]2C[C@@]2(C(=O)NS(=O)(=O)C2CCCCC2)NC(=O)[C@@H]2C[C@@H](OC(=O)N3CCc4ccccc4C3)CN2C1=O)OC1CCCC1 [Compound 189] | > 6.00 | > 7.00 | 
CC(C)(C)OC(=O)N[C@H]1CCCCC/C=C\[C@@H]2C[C@@]2(C(=O)NS(=O)(=O)C2CC2)NC(=O)[C@@H]2C[C@@H](OC(=O)N3Cc4c(Cl)ccc(Cl)c4C3)CN2C1=O [Compound 145] | > 7.00 | > 7.00 | 
Cc1ccccc1S(=O)(=O)NC(=O)[C@@]12C[C@H]1/C=C\CCCCC[C@H](NC(=O)OC(C)(C)C)C(=O)N1C[C@H](OC(=O)N3Cc4cccc(F)c4C3)C[C@H]1C(=O)N2 [Compound 157] | > 7.00 | > 7.00 | 
O=C1N[C@]2(C(=O)NCC3CC3)C[C@H]2/C=C\CCCCC[C@H](Nc2c(N3CCC3)c(=O)c2=O)C(=O)N2C[C@H](OC(=O)N3Cc4cccc(F)c4C3)C[C@@H]12 [Compound 647] | > 5.00 | > 7.00 | 
O=C(CCC(F)(F)F)N[C@H]1CCCCC/C=C\[C@@H]2C[C@@]2(C(=O)O)NC(=O)[C@@H]2C[C@@H](OC(=O)N3Cc4cccc(Cl)c4C3)CN2C1=O [Compound 142] | > 5.00 | > 7.00 | 
CC(C)Nc1c(N[C@H]2CCCCC/C=C\[C@@H]3C[C@@]3(C(=O)NS(=O)(=O)C3CC3)NC(=O)[C@@H]3C[C@@H](OC(=O)N4Cc5cccc(F)c5C4)CN3C2=O)c(=O)c1=O [Compound 184] | > 5.00 | > 7.00 | 
CC(C)(C)OC(=O)N[C@H]1CCCCC/C=C\[C@@H]2C[C@@]2(C(=O)Nc2n[nH]cc2C2CC2)NC(=O)[C@@H]2C[C@@H](OC(=O)N3Cc4cccc(F)c4C3)CN2C1=O [Compound 636] | > 7.00 | > 6.00 | 
COCC1(S(=O)(=O)NC(=O)[C@@]23C[C@H]2/C=C\CCCCC[C@H](NC(=O)OC(C)(C)C)C(=O)N2C[C@H](OC(=O)N4Cc5ccccc5C4)C[C@H]2C(=O)N3)CC1 [Compound 103] | > 7.00 | > 7.00 | 
CC(C)(C)OC(=O)N[C@H]1CCCCC/C=C\[C@@H]2C[C@@]2(C(=O)NS(=O)(=O)C2CC2)NC(=O)[C@@H]2C[C@@H](OC(=O)N3CCc4cccc(F)c4C3)CN2C1=O [Compound 257] | > 7.00 | > 7.00 | 
O=C(N[C@H]1CCCCC/C=C\[C@@H]2C[C@@]2(C(=O)NS(=O)(=O)C2CC2)NC(=O)[C@@H]2C[C@@H](OC(=O)N3Cc4ccc(OCCN5CCOCC5)cc4C3)CN2C1=O)OC1CCCC1 [Compound 132] | > 7.00 | > 7.00 | 
CC(C)(C)OC(=O)N[C@H]1CCCCC/C=C\[C@@H]2C[C@@]2(C(=O)O)NC(=O)[C@@H]2C[C@@H](OC(=O)N3Cc4ccc(C(F)(F)F)cc4C3)CN2C1=O [Compound 110] | > 5.00 | > 6.00 | 
N#CNC(=O)[C@@]12C[C@H]1/C=C\CCCCC[C@H](NC(=O)CCC(F)(F)F)C(=O)N1C[C@H](OC(=O)N3Cc4cccc(F)c4C3)CC1C(=O)N2 (stereo partly drawn) [Compound 642] | < 5.00 | > 6.00 | 
N[C@H]1CCCCC/C=C\[C@@H]2C[C@@]2(C(=O)NS(=O)(=O)N2CCC(F)(F)C2)NC(=O)[C@@H]2C[C@@H](OC(=O)N3Cc4cccc(Cl)c4C3)CN2C1=O [Compound 222] | > 5.00 |  | > 7.00
CN(C)S(=O)(=O)NC(=O)[C@@]12C[C@H]1/C=C\CCCCC[C@H](NC(=O)OC1CCCC1)C(=O)N1C[C@H](OC(=O)N3Cc4cccc(F)c4C3)C[C@H]1C(=O)N2 [Compound 215] | > 7.00 | > 7.00 | 

Compound | pEC50 [1] | pIC50 [2, 3] | pIC50 [2]
CC(C)(C)OC(=O)N[C@H]1CCCCC/C=C\[C@@H]2C[C@@]2(C(=O)O)NC(=O)[C@@H]2C[C@@H](OC(=O)N3Cc4ccc(F)cc4C3)CN2C1=O [Compound 109] | > 5.00 | > 7.00 | 
C[C@H](NC(=O)[C@@]12C[C@H]1/C=C\CCCCC[C@H](NC(=O)OC(C)(C)C)C(=O)N1C[C@H](OC(=O)N3Cc4cccc(F)c4C3)C[C@H]1C(=O)N2)c1ccc(F)cn1 [Compound 628] | > 6.00 | > 6.00 | 
CC(C)(C)OC(=O)N[C@H]1CCCCC/C=C\[C@@H]2C[C@@]2(C(=O)NS(=O)(=O)C2(Cc3ccccc3)CC2)NC(=O)[C@@H]2C[C@@H](OC(=O)N3Cc4cccc(Cl)c4C3)CN2C1=O [Compound 161] | > 7.00 | > 7.00 | 
CC(C)(C)OC(=O)N[C@H]1CCCCC/C=C\[C@@H]2C[C@@]2(C(=O)NCc2ccc(C(O)C(F)(F)F)cc2)NC(=O)[C@@H]2C[C@@H](OC(=O)N3Cc4cccc(F)c4C3)CN2C1=O (stereo partly drawn) [Compound 606] | > 6.00 | > 6.00 | 
O=C(N[C@H]1CCCCC/C=C\[C@@H]2C[C@@]2(C(=O)O)NC(=O)[C@@H]2C[C@@H](OC(=O)N3Cc4ccncc4C3)CN2C1=O)OC1CCCC1 [Compound 146] | < 5.00 | > 7.00 | 
CC(C)(C)OC(=O)N[C@H]1CCCC(F)(F)C/C=C\[C@@H]2C[C@@]2(C(=O)NS(=O)(=O)C2CC2)NC(=O)[C@@H]2C[C@@H](OC(=O)N3Cc4cccc(F)c4C3)CN2C1=O [Compound 1008, (2R,6S,13aS,14aR,16aS,Z)-6-(tert-butoxycarbonylamino)-14a-(cyclopropylsulfonylcarbamoyl)-9,9-difluoro-5,16-dioxo-1,2,3,5,6,7,8,9,10,11,13a,14,14a,15,16,16a-hexadecahydrocyclopropa(e)prrolo[1,2-a][1,4]diazacyclopentadecine 2-yl 4-fluoroisoindoline-2-carboxylate] | > 7.00 | > 7.00 | 
CN(C)C(=O)[C@@]12C[C@H]1/C=C\CCCCC[C@H](NC(=O)OC(C)(C)C)C(=O)N1C[C@H](OC(=O)N3Cc4cccc(F)c4C3)C[C@H]1C(=O)N2 [Compound 610] | < 5.00 | > 6.00 | 
CC(C)OC(=O)N[C@H]1CCCCC/C=C\[C@@H]2C[C@@]2(C(=O)NC#N)NC(=O)C2C[C@@H](OC(=O)N3Cc4cccc(F)c4C3)CN2C1=O (stereo partly drawn) [Compound 639] | < 5.00 | > 6.00 | 
O=C(N[C@H]1CCCCC/C=C\[C@@H]2C[C@@]2(C(=O)NS(=O)(=O)Nc2ccc(Cl)cc2)NC(=O)[C@@H]2C[C@@H](OC(=O)N3Cc4cccc(F)c4C3)CN2C1=O)OC1CCCC1 [Compound 219] | > 5.00 | > 7.00 | 
COc1cccc(CN[C@H]2CCCCC/C=C\[C@@H]3C[C@@]3(C(=O)NS(=O)(=O)C3CC3)NC(=O)[C@@H]3C[C@@H](OC(=O)N4Cc5cccc(F)c5C4)CN3C2=O)c1 [Compound 906] | > 7.00 | > 7.00 | 
CC(C)(C)OC(=O)N[C@H]1CCCCC/C=C\[C@@H]2C[C@@]2(C(=O)O)NC(=O)[C@@H]2C[C@@H](OC(=O)N3Cc4cccc(Cl)c4C3)CN2C1=O [Compound 113] | > 6.00 | > 7.00 | 
C[C@H](NC(=O)O[C@@H]1C[C@H]2C(=O)N[C@]3(C(=O)NS(=O)(=O)C4CC4)C[C@H]3/C=C\CCCCC[C@H](NC(=O)OC(C)(C)C)C(=O)N2C1)c1ccc(F)cn1 [Compound 149] | < 5.00 | > 7.00 | 
CC(C)(C)OC(=O)N[C@H]1CCCCC/C=C\[C@@H]2C[C@@]2(C(=O)NS(=O)(=O)C2CC2)NC(=O)[C@@H]2C[C@@H](OC(=O)N3CCc4c(Cl)ccc(F)c4C3)CN2C1=O [Compound 260] | > 7.00 | > 7.00 | 
N[C@H]1CCC(F)(F)CC/C=C\[C@@H]2C[C@@]2(C(=O)NS(=O)(=O)C2CC2)NC(=O)[C@@H]2C[C@@H](OC(=O)N3Cc4cccc(F)c4C3)CN2C1=O [Compound 1003] | > 6.00 | > 7.00 | 
CN(C)C(=S)NC(=O)[C@@]12C[C@H]1/C=C\CCCCC[C@H](NC(=O)OC(C)(C)C)C(=O)N1C[C@H](OC(=O)N3Cc4cccc(F)c4C3)C[C@H]1C(=O)N2 [Compound 236] | > 7.00 | > 7.00 | 
N[C@H]1CCCCC/C=C\[C@@H]2C[C@@]2(C(=O)NS(=O)(=O)NC2CCCC2)NC(=O)[C@@H]2C[C@@H](OC(=O)N3Cc4cccc(Cl)c4C3)CN2C1=O [Compound 221] | > 5.00 | > 7.00 | 
O=C(NC1CCCC1)N[C@H]1CCCCC/C=C\[C@@H]2C[C@@]2(C(=O)NS(=O)(=O)C2CC2)NC(=O)C2C[C@@H](OC(=O)N3Cc4cccc(F)c4C3)CN2C1=O (stereo partly drawn) [Compound 178] | > 7.00 | > 7.00 | 
O=C(N[C@H]1CCCCC/C=C\[C@@H]2C[C@@]2(C(=O)NS(=O)(=O)c2cccs2)NC(=O)[C@@H]2C[C@@H](OC(=O)N3CCc4ccccc4C3)CN2C1=O)OC1CCCC1 [Compound 190] | > 7.00 | > 7.00 | 
